Assay results as given in patent US9580390B2, “Indazole compounds as kinase inhibitors and method of treating cancer with same” (University Health Network, priority 2011, dated 2017).

Legend:
[1] = system: ovarian cancer cells (PA-1); assay: Cancer cell line growth inhibition (SRB assay); format: cell-based; conditions: PA-1 ovarian cancer cells, SRB assay; read-out: Cancer Cell Line GI50 Range PA-1
[2] = system: colon cancer cells (HCT116); assay: Cancer cell line growth inhibition (SRB assay); format: cell-based; conditions: Homo sapiens, HCT-116; HCT116 colon cancer cells, SRB assay; read-out: Cancer Cell Line GI50 Range HCT116

Compound	GI50 [1] [nM]	GI50 [2] [nM]
CO[C@@H](C(=O)Nc1ccc2[nH]nc(-c3ccc(O[C@@H]4CCN(C)C[C@@H]4F)cc3)c2c1)c1ccccc1 (relative stereo) [Example A135, (R)-N-(3-(4-(((3S,4R)-3-fluoro-1-methylpiperidin-4-yl)oxy)phenyl)-1H-indazol-5-yl)-2-methoxy-2-phenylacetamide]	100 to 500	100 to 500
CN1CCC(Oc2ccc(-c3n[nH]c4ccc(NC(=O)C5CCCc6ccccc65)cc34)cc2)CC1 (stereo not shown) [Example A18]	100 to 500	100 to 500
CC[C@@H](NC(=O)c1ccc2[nH]nc(-c3ccc(OC4CCN(C)CC4)cc3)c2c1)c1cccs1 [Example A63, (R)-3-(4-((1-methylpiperidin-4-yl)oxy)phenyl)-N-(1-(thiophen-2-yl)propyl)-1H-indazole-5-carboxamide]		< 100
CN1CCN(Cc2ccc(-c3n[nH]c4ccc(NC(=O)C(c5ccsc5)N5CCCC5)cc34)cc2)CC1 (stereo not shown) [Example A67, N-(3-(4-((4-methylpiperazin-1-yl)methyl)phenyl)-1H-indazol-5-yl)-2-(pyrrolidin-1-yl)-2-(thiophen-3-yl)acetamide]		100 to 500
O=C(Nc1ccc2[nH]nc(-c3ccc(NC4CCCCC4)cc3)c2c1)C(c1ccsc1)N1CCCC1 (stereo not shown) [Example A68, N-(3-(4-(cyclohexylamino)phenyl)-1H-indazol-5-yl)-2-(pyrrolidin-1-yl)-2-(thiophen-3-yl)acetamide]		> 500
O=C(Nc1ccc2[nH]nc(-c3ccc(NC4CCCC4)cc3)c2c1)C(c1ccsc1)N1CCCC1 (stereo not shown) [Example A70, N-(3-(4-(cyclopentylamino)phenyl)-1H-indazol-5-yl)-2-(pyrrolidin-1-yl)-2-(thiophen-3-yl)acetamide]		100 to 500
CN1CCC(Oc2ccc(-c3n[nH]c4ccc(NC(=O)N5CCCc6ccccc65)cc34)cc2)CC1 [Example A73, N-(3-(4-((1-methylpiperidin-4-yl)oxy)phenyl)-1H-indazol-5-yl)-3,4-dihydroquinoline-1(2H)-carboxamide]		> 500
CN1CCC(Oc2ccc(-c3n[nH]c4ccc(C(=O)NCC(C)(C)N5CCOCC5)cc34)cc2)CC1 [Example A74, N-(2-methyl-2-morpholinopropyl)-3-(4-((1-methylpiperidin-4-yl)oxy)phenyl)-1H-indazole-5-carboxamide]		> 500
CN1CCC(Oc2ccc(-c3n[nH]c4ccc(C(=O)NCC(c5ccsc5)N5CCOCC5)cc34)cc2)CC1 (stereo not shown) [Example A75, 3-(4-((1-methylpiperidin-4-yl)oxy)phenyl)-N-(2-morpholino-2-(thiophen-3-yl)ethyl)-1H-indazole-5-carboxamide]		100 to 500
CN1CCC(Oc2ccc(-c3n[nH]c4ccc(NC(=O)Nc5c(Cl)cccc5Cl)cc34)cc2)CC1 [Example A76, 1-(2,6-dichlorophenyl)-3-(3-(4-((1-methylpiperidin-4-yl)oxy)phenyl)-1H-indazol-5-yl)urea]		< 100
Cc1cc(C)c(NC(=O)Nc2ccc3[nH]nc(-c4ccc(OC5CCN(C)CC5)cc4)c3c2)c(Cl)c1 [Example A77, 1-(2-chloro-4,6-dimethylphenyl)-3-(3-(4-((1-methylpiperidin-4-yl)oxy)phenyl)-1H-indazol-5-yl)urea]		100 to 500
CN(c1ccc(-c2n[nH]c3ccc(NC(=O)C(c4ccsc4)N4CCCC4)cc23)cc1)C1CCOCC1 (stereo not shown) [Example A78, N-(3-(4-(methyl(tetrahydro-2H-pyran-4-yl)amino)phenyl)-1H-indazol-5-yl)-2-(pyrrolidin-1-yl)-2-(thiophen-3-yl)acetamide]		< 100
C[C@H]1CCCN1[C@H](C(=O)Nc1ccc2[nH]nc(-c3ccc(N4CCOCC4)cc3)c2c1)c1cccs1 [Example A79, (R)-2-((S)-2-methylpyrrolidin-1-yl)-N-(3-(4-morpholinophenyl)-1H-indazol-5-yl)-2-(thiophen-2-yl)acetamide]		< 100
CN1CCC(Oc2ccc(-c3n[nH]c4ccc(NC(=O)C(c5ccsc5)N5CCCC5)cc34)cc2N)CC1 (stereo not shown) [Example A80, N-(3-(3-amino-4-((1-methylpiperidin-4-yl)oxy)phenyl)-1H-indazol-5-yl)-2-(pyrrolidin-1-yl)-2-(thiophen-3-yl)acetamide]		< 100
O=C(Nc1ccc2[nH]nc(-c3ccc(N4CCOCC4)cc3)c2c1)C(c1cccs1)N1CCCC1 (stereo not shown) [Example A82, N-(3-(4-morpholinophenyl)-1H-indazol-5-yl)-2-(pyrrolidin-1-yl)-2-(thiophen-2-yl)acetamide]	< 100	< 100
O=C(Nc1ccc2[nH]nc(-c3ccc(N4CCC(O)CC4)cc3)c2c1)C(c1ccsc1)N1CCCCC1 (stereo not shown) [Example A83, N-(3-(4-(4-hydroxypiperidin-1-yl)phenyl)-1H-indazol-5-yl)-2-(piperidin-1-yl)-2-(thiophen-3-yl)acetamide]	100 to 500	< 100

Compound	GI50 [1] [nM]	GI50 [2] [nM]
O=C(NC(c1ccccc1)C1CC1)c1ccc2[nH]nc(-c3ccc(N4CCC(O)CC4)cc3)c2c1 (stereo not shown) [Example A84, N-(cyclopropyl(phenyl)methyl)-3-(4-(4-hydroxypiperidin-1-yl)phenyl)-1H-indazole-5-carboxamide]	100 to 500	< 100
CCc1cccc(CC)c1NC(=O)Nc1ccc2[nH]nc(-c3ccc(N4CCOCC4)cc3)c2c1 [Example A86, 1-(2,6-diethylphenyl)-3-(3-(4-morpholinophenyl)-1H-indazol-5-yl)urea]	100 to 500	< 100
COC(C(=O)Nc1ccc2[nH]nc(-c3ccc(N4CCC(O)CC4)cc3)c2c1)c1ccsc1 (stereo not shown) [Example A87, N-(3-(4-(4-hydroxypiperidin-1-yl)phenyl)-1H-indazol-5-yl)-2-methoxy-2-(thiophen-3-yl)acetamide]	100 to 500	100 to 500
O=C(Nc1ccc2[nH]nc(-c3ccc(N4CCC(O)CC4)cc3)c2c1)C(c1cccs1)N1CCCC1 (stereo not shown) [Example A88, N-(3-(4-(4-hydroxypiperidin-1-yl)phenyl)-1H-indazol-5-yl)-2-(pyrrolidin-1-yl)-2-(thiophen-2-yl)acetamide]	< 100	< 100
CN1CCOc2ccc(-c3n[nH]c4ccc(NC(=O)C(c5ccsc5)N5CCCC5)cc34)cc2C1 (stereo not shown) [Example A90, N-(3-(4-methyl-2,3,4,5-tetrahydrobenzo[f][1,4]oxazepin-7-yl)-1H-indazol-5-yl)-2-(pyrrolidin-1-yl)-2-(thiophen-3-yl)acetamide]	> 500	100 to 500
CN1CCN(C)c2ccc(-c3n[nH]c4ccc(NC(=O)C(c5ccsc5)N5CCCC5)cc34)cc2C1 (stereo not shown) [Example A93, N-(3-(1,4-dimethyl-2,3,4,5-tetrahydro-1H-benzo[e][1,4]diazepin-7-yl)-1H-indazol-5-yl)-2-(pyrrolidin-1-yl)-2-(thiophen-3-yl)acetamide]	> 500	> 500
CN1CCC(Oc2cccc(-c3n[nH]c4ccc(NC(=O)C(c5ccsc5)N5CCCC5)cc34)c2)CC1 (stereo not shown) [Example A99, N-(3-(3-((1-methylpiperidin-4-yl)oxy)phenyl)-1H-indazol-5-yl)-2-(pyrrolidin-1-yl)-2-(thiophen-3-yl)acetamide]	> 500	> 500
O=C(NC(c1ccccc1)C1CCC1)c1ccc2[nH]nc(-c3ccc(N4CCC(O)CC4)cc3)c2c1 (stereo not shown) [Example A100, N-(cyclobutyl(phenyl)methyl)-3-(4-(4-hydroxypiperidin-1-yl)phenyl)-1H-indazole-5-carboxamide]	< 100	< 100
O=C(Nc1ccc2[nH]nc(-c3ccc(N4CCC(O)CC4)cc3)c2c1)C(c1ccccc1)C1CC1 (stereo not shown) [Example A103, 2-cyclopropyl-N-(3-(4-(4-hydroxypiperidin-1-yl)phenyl)-1H-indazol-5-yl)-2-phenylacetamide]	< 100	< 100
O=C(NC(c1ccccc1)C1CC1)c1ccc2[nH]nc(-c3ccc(OC4CCN(CCO)CC4)cc3)c2c1 (stereo not shown) [Example A104, N-(cyclopropyl(phenyl)methyl)-3-(4-((1-(2-hydroxyethyl)piperidin-4-yl)oxy)phenyl)-1H-indazole-5-carboxamide]	< 100	< 100
COCCN1CCC(Oc2ccc(-c3n[nH]c4ccc(NC(=O)[C@H](OC)c5ccccc5)cc34)cc2)CC1 [Example A107, (R)-2-methoxy-N-(3-(4-((1-(2-methoxyethyl)piperidin-4-yl)oxy)phenyl)-1H-indazol-5-yl)-2-phenylacetamide]	100 to 500	100 to 500
CN1CCC(Oc2ccc(-c3n[nH]c4ccc(C(=O)NCc5ccccc5N5CCOCC5)cc34)cc2)CC1 [Example A108, 3-(4-(1-Methylpiperidin-4-yloxy)phenyl)-N-(2-morpholinobenzyl)-1H-indazole-5-carboxamide]	100 to 500	100 to 500
CN1CCC(Oc2ccc(-c3n[nH]c4ccc(C(=O)NCc5ccccc5CN5CCOCC5)cc34)cc2)CC1 [Example A109, 3-(4-(1-Methylpiperidin-4-yloxy)phenyl)-N-(2-(morpholinomethyl)benzyl)-1H-indazole-5-carboxamide]	100 to 500	> 500
CC(C)(O)C1CCN(c2ccc(-c3n[nH]c4ccc(NC(=O)C(c5ccsc5)N5CCCC5)cc34)cc2)CC1 (stereo not shown) [Example A111, N-(3-(4-(4-(2-hydroxypropan-2-yl)piperidin-1-yl)phenyl)-1H-indazol-5-yl)-2-(pyrrolidin-1-yl)-2-(thiophen-3-yl)acetamide]	< 100	< 100
CC(C)(O)C1CCN(c2ccc(-c3n[nH]c4ccc(C(=O)NC(c5ccccc5)C5CC5)cc34)cc2)CC1 (stereo not shown) [Example A112, N-(cyclopropyl(phenyl)methyl)-3-(4-(4-(2-hydroxypropan-2-yl)piperidin-1-yl)phenyl)-1H-indazole-5-carboxamide]	100 to 500	100 to 500
CN1CCC(Oc2ccc(-c3n[nH]c4ccc(NC(=O)C(c5ccsc5)N5CCCC5)cc34)cc2N(C)C)CC1 (stereo not shown) [Example A113, N-(3-(3-(dimethylamino)-4-((1-methylpiperidin-4-yl)oxy)phenyl)-1H-indazol-5-yl)-2-(pyrrolidin-1-yl)-2-(thiophen-3-yl)acetamide]	< 100	< 100
